Assay results taken from the NIST ThermoML archive (doi:10.1016/j.jct.2015.12.028).

Conditions: Liquid, light scattering

CCCCCCCC(=O)OCC [ethyl octanoate]
Conditions	speed of sound [m/s]
293.25 K, 100 kPa	1281
293.65 K, 1000 kPa	1284
293.67 K, 2510 kPa	1290.6
293.69 K, 4020 kPa	1296.8
293.72 K, 5520 kPa	1301
293.75 K, 6980 kPa	1307.1
293.77 K, 8490 kPa	1313.5
293.77 K, 10010 kPa	1325.8
303.05 K, 100 kPa	1245.9
303.08 K, 8480 kPa	1288.6
303.13 K, 7040 kPa	1280.7
303.14 K, 3980 kPa	1263.7
303.15 K, 1030 kPa	1249.1
303.15 K, 2510 kPa	1257.8
303.15 K, 5520 kPa	1273.7
303.18 K, 10000 kPa	1295.5
313.07 K, 100 kPa	1211
313.15 K, 1000 kPa	1214.2
313.28 K, 9990 kPa	1263.2
313.38 K, 8530 kPa	1257.4
313.39 K, 5500 kPa	1240.3
313.4 K, 2510 kPa	1223.2
313.4 K, 4060 kPa	1230.6
313.41 K, 6980 kPa	1249.6
322.88 K, 100 kPa	1176.3
323.19 K, 8540 kPa	1227.3
323.29 K, 10100 kPa	1231.2
323.33 K, 1200 kPa	1185.7
323.35 K, 2490 kPa	1190.8
323.35 K, 3970 kPa	1197.8
323.35 K, 5510 kPa	1205.3
323.35 K, 7060 kPa	1215
332.39 K, 9980 kPa	1202.3
332.49 K, 8520 kPa	1194.3
332.64 K, 7040 kPa	1183.5
332.65 K, 5510 kPa	1175.2
332.67 K, 2480 kPa	1158.3
332.67 K, 4030 kPa	1167.5
332.68 K, 980 kPa	1149.1
333 K, 100 kPa	1141.8
342.6 K, 890 kPa	1113.2
342.61 K, 4000 kPa	1133.9
342.64 K, 2530 kPa	1124.1
342.71 K, 5490 kPa	1142.7
342.74 K, 8510 kPa	1163.8
342.77 K, 6990 kPa	1152.8
342.94 K, 9970 kPa	1168.8
343.12 K, 100 kPa	1107.4
352.36 K, 100 kPa	1073.3
353.44 K, 10120 kPa	1135.6
353.54 K, 2480 kPa	1088
353.54 K, 6990 kPa	1116
353.54 K, 8520 kPa	1129.3
353.56 K, 1030 kPa	1080.3
353.58 K, 5480 kPa	1103.2
353.6 K, 4000 kPa	1096.3
363.16 K, 8500 kPa	1095.2
363.19 K, 100 kPa	1039.3
363.19 K, 1070 kPa	1047.2
363.19 K, 7030 kPa	1083.1
363.21 K, 2520 kPa	1053.8
363.21 K, 4080 kPa	1062
363.21 K, 5520 kPa	1071.3
363.26 K, 10030 kPa	1104.7
372.7 K, 2510 kPa	1022.9
372.73 K, 3980 kPa	1033.3
372.75 K, 8570 kPa	1067.6
372.79 K, 100 kPa	1005.6
372.79 K, 1040 kPa	1013.2
372.82 K, 5530 kPa	1046.7
372.82 K, 6960 kPa	1055.2
372.95 K, 10040 kPa	1074.2
382.73 K, 7000 kPa	1020.4
382.8 K, 5550 kPa	1012.8
382.82 K, 4060 kPa	998.99
382.9 K, 2540 kPa	988.47

Conditions	speed of sound [m/s]
293.73 K	1275.7
302.98 K	1243
313.53 K	1206.1
323.27 K	1173.1
332.65 K	1138.5
343.2 K	1103.8
352.53 K	1069.9
363.28 K	1035.2
372.96 K	1001.9
